Reference: PubChem BioAssay (NCI)
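Following 48 hours of exposure in 96-well plates, responses at five concentrations were used to interpolate endpoints linearly. At the GI50, growth is halved. The concentration for full growth arrest is given as TGI.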

Key:
Test in all cases: NCI anticancer screen, dose series, 48 h
786-0 renal = test system: 786-0 renal
A498 renal = test system: A498 renal
A549 NSCLC = test system: A549 NSCLC
ACHN renal = test system: ACHN renal
BT-549 breast = test system: BT-549 breast
CAKI-1 renal = test system: CAKI-1 renal
CCRF-CEM leukemia = test system: CCRF-CEM leukemia
COLO 205 colon = test system: COLO 205 colon
DU-145 prostate = test system: DU-145 prostate
EKVX NSCLC = test system: EKVX NSCLC
HCC-2998 colon = test system: HCC-2998 colon
HCT-116 colon = test system: HCT-116 colon
HCT-15 colon = test system: HCT-15 colon
HL-60(TB) leukemia = test system: HL-60(TB) leukemia
HOP-62 NSCLC = test system: HOP-62 NSCLC
HOP-92 NSCLC = test system: HOP-92 NSCLC
HS 578T breast = test system: HS 578T breast
HT29 colon = test system: HT29 colon
IGROV1 ovarian = test system: IGROV1 ovarian
K-562 leukemia = test system: K-562 leukemia
KM12 colon = test system: KM12 colon
LOX IMVI melanoma = test system: LOX IMVI melanoma
M14 melanoma = test system: M14 melanoma
MALME-3M melanoma = test system: MALME-3M melanoma
MCF7 breast = test system: MCF7 breast
MDA-MB-231 breast = test system: MDA-MB-231 breast
MDA-MB-435 = test system: MDA-MB-435
MOLT-4 leukemia = test system: MOLT-4 leukemia
NCI-H226 lung = test system: NCI-H226 lung
NCI-H23 lung = test system: NCI-H23 lung
NCI-H460 lung = test system: NCI-H460 lung
NCI-H522 lung = test system: NCI-H522 lung
NCI/ADR-RES ovarian = test system: NCI/ADR-RES ovarian
OVCAR-3 ovarian = test system: OVCAR-3 ovarian
OVCAR-4 ovarian = test system: OVCAR-4 ovarian
OVCAR-5 ovarian = test system: OVCAR-5 ovarian
OVCAR-8 ovarian = test system: OVCAR-8 ovarian
PC-3 prostate = test system: PC-3 prostate
RPMI-8226 leukemia = test system: RPMI-8226 leukemia
RXF 393 renal = test system: RXF 393 renal
SF-268 CNS = test system: SF-268 CNS
SF-295 CNS = test system: SF-295 CNS
SF-539 CNS = test system: SF-539 CNS
SK-MEL-2 melanoma = test system: SK-MEL-2 melanoma
SK-MEL-28 melanoma = test system: SK-MEL-28 melanoma
SK-MEL-5 melanoma = test system: SK-MEL-5 melanoma
SK-OV-3 ovarian = test system: SK-OV-3 ovarian
SN12C renal = test system: SN12C renal
SNB-19 CNS = test system: SNB-19 CNS
SNB-75 CNS = test system: SNB-75 CNS
SR leukemia = test system: SR leukemia
SW-620 colon = test system: SW-620 colon
T-47D breast = test system: T-47D breast
TK-10 renal = test system: TK-10 renal
U251 CNS = test system: U251 CNS
UACC-257 melanoma = test system: UACC-257 melanoma
UACC-62 melanoma = test system: UACC-62 melanoma
UO-31 renal = test system: UO-31 renal

Question: Which GI50 (786-0 renal) does the source give for `COC(=O)c1cnc(=O)n(C2CC(O)C(CO)O2)c1` (centres undefined) here?
Answer: > 100 µM

Question: What about the TGI (786-0 renal) of the same molecule?
Answer: > 100 µM

Question: What about the GI50 (A498 renal) of the same molecule?
Answer: > 100 µM

Question: And the TGI (A498 renal)?
Answer: > 100 µM

Question: What about the GI50 (A549 NSCLC) of the same molecule?
Answer: > 100 µM

Question: And the TGI (A549 NSCLC)?
Answer: > 100 µM

Question: And the GI50 (ACHN renal)?
Answer: > 100 µM

Question: And the TGI (ACHN renal)?
Answer: > 100 µM

Question: What about the GI50 (BT-549 breast) of the same molecule?
Answer: > 100 µM

Question: What about the TGI (BT-549 breast) of the same molecule?
Answer: > 100 µM

Question: What about the GI50 (CAKI-1 renal) of the same molecule?
Answer: > 100 µM

Question: What about the TGI (CAKI-1 renal) of the same molecule?
Answer: > 100 µM

Question: What about the TGI (CCRF-CEM leukemia) of the same molecule?
Answer: > 100 µM

Question: What about the GI50 (COLO 205 colon) of the same molecule?
Answer: > 100 µM

Question: What about the TGI (COLO 205 colon) of the same molecule?
Answer: > 100 µM

Question: And the GI50 (DU-145 prostate)?
Answer: > 100 µM

Question: And the TGI (DU-145 prostate)?
Answer: > 100 µM

Question: And the GI50 (EKVX NSCLC)?
Answer: > 100 µM

Question: And the TGI (EKVX NSCLC)?
Answer: > 100 µM

Question: What about the GI50 (HCC-2998 colon) of the same molecule?
Answer: > 100 µM

Question: And the TGI (HCC-2998 colon)?
Answer: > 100 µM

Question: What about the GI50 (HCT-116 colon) of the same molecule?
Answer: > 100 µM

Question: And the TGI (HCT-116 colon)?
Answer: > 100 µM

Question: And the GI50 (HCT-15 colon)?
Answer: > 100 µM

Question: And the TGI (HCT-15 colon)?
Answer: > 100 µM

Question: What about the GI50 (HL-60(TB) leukemia) of the same molecule?
Answer: > 100 µM

Question: What about the TGI (HL-60(TB) leukemia) of the same molecule?
Answer: > 100 µM

Question: And the GI50 (HOP-62 NSCLC)?
Answer: > 100 µM

Question: What about the TGI (HOP-62 NSCLC) of the same molecule?
Answer: > 100 µM

Question: And the TGI (HOP-92 NSCLC)?
Answer: > 100 µM

Question: What about the GI50 (HS 578T breast) of the same molecule?
Answer: > 100 µM

Question: What about the TGI (HS 578T breast) of the same molecule?
Answer: > 100 µM

Question: What about the GI50 (HT29 colon) of the same molecule?
Answer: > 100 µM

Question: What about the TGI (HT29 colon) of the same molecule?
Answer: > 100 µM

Question: What about the GI50 (IGROV1 ovarian) of the same molecule?
Answer: > 100 µM

Question: What about the TGI (IGROV1 ovarian) of the same molecule?
Answer: > 100 µM

Question: What about the GI50 (K-562 leukemia) of the same molecule?
Answer: > 100 µM

Question: And the TGI (K-562 leukemia)?
Answer: > 100 µM

Question: What about the GI50 (KM12 colon) of the same molecule?
Answer: > 100 µM

Question: What about the TGI (KM12 colon) of the same molecule?
Answer: > 100 µM

Question: What about the GI50 (LOX IMVI melanoma) of the same molecule?
Answer: > 100 µM

Question: And the TGI (LOX IMVI melanoma)?
Answer: > 100 µM

Question: And the GI50 (M14 melanoma)?
Answer: > 100 µM

Question: What about the TGI (M14 melanoma) of the same molecule?
Answer: > 100 µM

Question: What about the GI50 (MALME-3M melanoma) of the same molecule?
Answer: > 100 µM

Question: And the TGI (MALME-3M melanoma)?
Answer: > 100 µM

Question: What about the GI50 (MCF7 breast) of the same molecule?
Answer: > 100 µM

Question: And the TGI (MCF7 breast)?
Answer: > 100 µM

Question: What about the GI50 (MDA-MB-231 breast) of the same molecule?
Answer: > 100 µM

Question: And the TGI (MDA-MB-231 breast)?
Answer: > 100 µM

Question: What about the GI50 (MDA-MB-435) of the same molecule?
Answer: > 100 µM

Question: And the TGI (MDA-MB-435)?
Answer: > 100 µM

Question: And the GI50 (MOLT-4 leukemia)?
Answer: > 100 µM

Question: And the TGI (MOLT-4 leukemia)?
Answer: > 100 µM

Question: What about the GI50 (NCI-H226 lung) of the same molecule?
Answer: > 100 µM

Question: What about the TGI (NCI-H226 lung) of the same molecule?
Answer: > 100 µM

Question: And the GI50 (NCI-H23 lung)?
Answer: > 100 µM

Question: And the TGI (NCI-H23 lung)?
Answer: > 100 µM

Question: And the GI50 (NCI-H460 lung)?
Answer: > 100 µM

Question: And the TGI (NCI-H460 lung)?
Answer: > 100 µM

Question: And the GI50 (NCI-H522 lung)?
Answer: > 100 µM

Question: What about the TGI (NCI-H522 lung) of the same molecule?
Answer: > 100 µM

Question: What about the GI50 (NCI/ADR-RES ovarian) of the same molecule?
Answer: > 100 µM

Question: And the TGI (NCI/ADR-RES ovarian)?
Answer: > 100 µM

Question: And the GI50 (OVCAR-3 ovarian)?
Answer: > 100 µM

Question: What about the TGI (OVCAR-3 ovarian) of the same molecule?
Answer: > 100 µM

Question: And the GI50 (OVCAR-4 ovarian)?
Answer: > 100 µM

Question: And the TGI (OVCAR-4 ovarian)?
Answer: > 100 µM

Question: And the GI50 (OVCAR-5 ovarian)?
Answer: > 100 µM

Question: And the TGI (OVCAR-5 ovarian)?
Answer: > 100 µM

Question: What about the GI50 (OVCAR-8 ovarian) of the same molecule?
Answer: > 100 µM

Question: What about the TGI (OVCAR-8 ovarian) of the same molecule?
Answer: > 100 µM

Question: What about the GI50 (PC-3 prostate) of the same molecule?
Answer: 0.811 µM

Question: And the TGI (PC-3 prostate)?
Answer: > 100 µM

Question: What about the GI50 (RPMI-8226 leukemia) of the same molecule?
Answer: 1.42 µM

Question: And the TGI (RPMI-8226 leukemia)?
Answer: > 58.5 µM

Question: What about the GI50 (RXF 393 renal) of the same molecule?
Answer: > 100 µM

Question: What about the TGI (RXF 393 renal) of the same molecule?
Answer: > 100 µM

Question: And the GI50 (SF-268 CNS)?
Answer: > 100 µM

Question: What about the TGI (SF-268 CNS) of the same molecule?
Answer: > 100 µM

Question: And the GI50 (SF-295 CNS)?
Answer: > 100 µM

Question: And the TGI (SF-295 CNS)?
Answer: > 100 µM

Question: What about the GI50 (SF-539 CNS) of the same molecule?
Answer: > 100 µM

Question: What about the TGI (SF-539 CNS) of the same molecule?
Answer: > 100 µM

Question: And the GI50 (SK-MEL-2 melanoma)?
Answer: > 100 µM

Question: What about the TGI (SK-MEL-2 melanoma) of the same molecule?
Answer: > 100 µM

Question: What about the GI50 (SK-MEL-28 melanoma) of the same molecule?
Answer: > 100 µM

Question: What about the TGI (SK-MEL-28 melanoma) of the same molecule?
Answer: > 100 µM

Question: What about the GI50 (SK-MEL-5 melanoma) of the same molecule?
Answer: > 100 µM

Question: And the TGI (SK-MEL-5 melanoma)?
Answer: > 100 µM

Question: What about the GI50 (SK-OV-3 ovarian) of the same molecule?
Answer: > 100 µM

Question: And the TGI (SK-OV-3 ovarian)?
Answer: > 100 µM

Question: And the GI50 (SN12C renal)?
Answer: > 100 µM

Question: What about the TGI (SN12C renal) of the same molecule?
Answer: > 100 µM

Question: What about the GI50 (SNB-19 CNS) of the same molecule?
Answer: > 100 µM

Question: What about the TGI (SNB-19 CNS) of the same molecule?
Answer: > 100 µM

Question: What about the GI50 (SNB-75 CNS) of the same molecule?
Answer: > 100 µM

Question: And the TGI (SNB-75 CNS)?
Answer: > 100 µM

Question: And the GI50 (SR leukemia)?
Answer: > 100 µM

Question: What about the TGI (SR leukemia) of the same molecule?
Answer: > 100 µM

Question: What about the GI50 (SW-620 colon) of the same molecule?
Answer: > 100 µM

Question: What about the TGI (SW-620 colon) of the same molecule?
Answer: > 100 µM

Question: What about the GI50 (T-47D breast) of the same molecule?
Answer: > 100 µM

Question: What about the TGI (T-47D breast) of the same molecule?
Answer: > 100 µM

Question: And the GI50 (TK-10 renal)?
Answer: > 100 µM

Question: What about the TGI (TK-10 renal) of the same molecule?
Answer: > 100 µM

Question: And the GI50 (U251 CNS)?
Answer: > 100 µM

Question: What about the TGI (U251 CNS) of the same molecule?
Answer: > 100 µM

Question: What about the GI50 (UACC-257 melanoma) of the same molecule?
Answer: > 100 µM

Question: What about the TGI (UACC-257 melanoma) of the same molecule?
Answer: > 100 µM

Question: What about the GI50 (UACC-62 melanoma) of the same molecule?
Answer: > 100 µM

Question: And the TGI (UACC-62 melanoma)?
Answer: > 100 µM

Question: And the GI50 (UO-31 renal)?
Answer: > 100 µM

Question: What about the TGI (UO-31 renal) of the same molecule?
Answer: > 100 µM
